Results on 20 molecules are retold here after publication PMC5420417, “Inhibitory Effect of Chemical Constituents Isolated from Artemisia iwayomogi on Polyol Pathway and Simultaneous Quantification of Major Bioactive Compounds” (BioMed Research International, 2017).

Where two headings read alike, the source gives them in different places. Where only a bound is given, the exact number is not on record here.

As usually defined, the IC50 is the concentration that gives 50% inhibition.

Assay [1] deals with advanced glycation endproducts (AGEs) formation. In words: AGEs formation inhibitory activity, bovine serum albumin with fructose and glucose, fluorescence. It is filed as biochemical. The settings on record: for IC50: ND = not detected. How it is done:
Inhibition of AGEs formation was determined by an assay containing bovine serum albumin (10 mg/mL) in 50 mM phosphate buffer (pH 7.4) with 0.02% sodium azide, to which 0.4 M fructose and glucose was added. The assay mixture was incubated at 60°C for 2 days. After incubating, the reaction was measured on Fluorescence in a 96-black-well plate (excitation wavelength 350 nm, emission wavelength 450 nm). Aminoguaidine (AG) was used as a positive control.
(§1) Inhibition (%): (Ac − As/Ac) × 100. In AR inhibition activity, Ac is absorbance of control and As is absorbance of samples. In AGEs formation inhibition activity, Ac is fluorescence of control and As is fluorescence of samples. […] IC50 values were calculated from the least-squares regression line of the log of concentration plotted against residual activity. All assays were performed in triplicate. Data was presented as mean ± standard deviation (SD).

The target in a further assay is T1, aldose reductase (AR) (Rattus norvegicus, UniProt P07943).
T1 construct: The rat lenses were homogenized in 0.1 M sodium phosphate buffer (pH 6.2) and centrifuged; from tissue; host or cells: lens of Sprague-Dawley rats (homogenate supernatant)
In words: Aldose reductase (AR) inhibitory activity, rat lens homogenate, decrease of β-NADPH absorption at 340 nm. In kind it is biochemical, Sprague-Dawley rats. How it is done:
Rat lenses (one lens per 0.5 mL sodium buffer) were obtained from Sprague-Dawley rats (weighing 250~280 g). The rat lenses were homogenized in 0.1 M sodium phosphate buffer (pH 6.2) and centrifuged at 10,000 rpm (4°C, 20 min). After centrifugation, the supernatant was used as an enzyme. AR activity was spectrophotometrically determined by measuring the decrease in the absorption of β-NADPH at 340 nm for a 4 min period using DL-glyceraldehydes as substrates. The assay mixture contained 1.6 mM β-NADPH, 0.1 M potassium phosphate buffer (pH 7.0), AR homogenate, 4 M ammonium sulfate, 0.025 M DL-glyceraldehyde, and the sample in 100% DMSO. The total volume of the assay mixture was 0.3 mL and the reaction was performed in a 96-well plate. 3,3′-Tetramethylene glutaric acid (TMG), a typical AR inhibitor, was used as a positive control.
as §1

Another assay relates to AR. Further details: method as in PMID 21092751, PMID 18379080. The following applies: previous literature ref 24, 38; cited from earlier work.
[2] abbreviates: BSA 10 mg/mL, 0.4 M fructose and glucose, 60°C, 2 days, mean ± SD.
Setting [3] is: rat lens AR, DL-glyceraldehyde substrate, mean ± SD, triplicate, read-out: IC50 AR.

For the molecule `N=C(N)NN` [AG, Aminoguaidine, reference compound], the “IC50 AGEs formation” value in assay [1] (BSA 10 mg/mL, 0.4 M fructose and glucose, 60°C, 2 days, extract and fractions, mean ± SD) is 45.85 ± 7.17^∗∗ μg/ml. This molecule also gave an IC50 in assay [1] (setting [2]) of 415 ± 5.96 µM.
`COc1cc2ccc(=O)oc2cc1O` [Compound 1, scopoletin]: the “inhibition of AR (in words)” value against aldose reductase (AR) (rat lens AR) is listed as “minor inhibition”. Besides, the IC50 on aldose reductase (AR) (setting [3]) turned out to be 90.4 ± 1.91 µM; in assay [1] (setting [2]), 20.7 ± 1.38 µM.
Regarding `COc1cc2ccc(=O)oc2cc1O[C@@H]1O[C@H](CO)[C@@H](O)[C@H](O)[C@H]1O` [Compound 2, scopolin], the IC50 worked out at 131.37 ± 0.12 µM on aldose reductase (AR) (setting [3]) and 82.4 ± 1.52 µM in assay [1] (setting [2]).
The corresponding values for `COc1cc(O)c2c(=O)cc(-c3ccc(O)cc3)oc2c1` [Compound 3, genkwanin] are > 200 µM and 312 ± 11.3 µM.
Turning to `COc1c(O)cc2oc(-c3ccc(O)cc3)cc(=O)c2c1O` [Compound 4, hispidulin], the half-maximal inhibitory concentration (IC50) on aldose reductase (AR) was 2.93 ± 0.11 µM; in assay [1] (setting [2]), 185.6 ± 0.2 µM.
For `COc1cc(-c2cc(=O)c3c(O)c(OC)c(O)cc3o2)ccc1O` [Compound 5, jaceosidin], the IC50 on aldose reductase (AR) (setting [3]) was 111 ± 9.89 µM; in assay [1] (setting [2]), 170 ± 16.4 µM.
The corresponding values for `COc1c(O)cc2oc(-c3ccc(O)c(O)c3)c(OC3OC(CO)C(O)C(O)C3O)c(=O)c2c1O` (centres unmarked) [Compound 8, patuletin-3-O-glucoside] are 3.19 ± 0.1 µM and 197 ± 11 µM.
The corresponding values for `O=c1c(O[C@@H]2O[C@H](CO)[C@@H](O)[C@H](O)[C@H]2O)c(-c2ccc(O)c(O)c2)oc2cc(O)cc(O)c12` [Compound 9, isoquercetin] are 3.32 ± 0.21 µM and 67.4 ± 9.95 µM.
The corresponding values for `C[C@@H]1O[C@@H](OC[C@H]2O[C@@H](Oc3c(-c4ccc(O)c(O)c4)oc4cc(O)cc(O)c4c3=O)[C@H](O)[C@@H](O)[C@@H]2O)[C@H](O)[C@H](O)[C@H]1O` [Compound 11, rutin] are 12.5 ± 0.2 µM and 129 ± 4.01 µM.
On to `O=C(/C=C/c1ccc(O)c(O)c1)OC1CC(O)(C(=O)O)CC(O)C1O` (centres unmarked) [Compound 12, 3-O-caffeoylquinic acid], for which the IC50 at aldose reductase (AR) (setting [3]) amounted to 4.54 ± 0.16 µM; in assay [1] (setting [2]), 176 ± 5.77 µM.
As for `O=C(/C=C/c1ccc(O)c(O)c1)OC1CC(OC(=O)/C=C/c2ccc(O)c(O)c2)(C(=O)O)CC(O)C1O` (centres unmarked) [Compound 13, 1,3-di-O-caffeoylquinic acid], on aldose reductase (AR) (rat lens AR), the “inhibition of AR (in words)” value was “strongest inhibition”. In addition, the IC50 was found to be 0.22 ± 0.01 µM at aldose reductase (AR) (setting [3]) and 24.9 ± 1.86 µM in assay [1] (setting [2]).
On to `O=C(/C=C/c1ccc(O)c(O)c1)OC1CC(O)(C(=O)O)CC(O)C1OC(=O)/C=C/c1ccc(O)c(O)c1` (centres unmarked) [Compound 14, 3,4-di-O-caffeoylquinic acid], for which the half-maximal inhibitory concentration (IC50) at aldose reductase (AR) (setting [3]) was determined as 1.9 ± 0.01 µM; in assay [1] (setting [2]) it was 124 ± 4.25 µM.
For the molecule `O=C(/C=C/c1ccc(O)c(O)c1)OC1CC(O)(C(=O)O)CC(OC(=O)/C=C/c2ccc(O)c(O)c2)C1O` (centres unmarked) [Compound 15, 3,5-di-O-caffeoylquinic acid], the IC50 in assay [1] (setting [2]) came out at 31.8 ± 0.56 µM.
`COC(=O)C1(O)CC(OC(=O)/C=C/c2ccc(O)c(O)c2)C(O)C(OC(=O)/C=C/c2ccc(O)c(O)c2)C1` (centres unmarked) [Compound 16, 3,5-di-O-caffeoylquinic acid methyl ester]: the concentration for half-maximal inhibition (IC50) on aldose reductase (AR) (setting [3]) was found to be 1.48 ± 0.04 µM; in assay [1] (setting [2]), 44.5 ± 4.86 µM.
As for `CC1(C)C(O)CCC2(C)C3CCC4CC3(CCC12)CC4(O)COC1OC(CO)C(O)C(O)C1O` (centres unmarked) [Compound 17, iwayoside A], the IC50 at aldose reductase (AR) (setting [3]) was > 200 µM.
The same measure, in the same setting: the value for `CC1(C)C(O)CCC2(C)C3CCC4CC3(CCC12)CC4(O)COC1OC(CO)C(O)C(O)C1O` (centres unmarked) [Compound 18, suavioside A] was > 200 µM; that for `CC1(C)C(=O)CCC2(C)C3CCC4CC3(CCC12)CC4(O)COC1OC(CO)C(O)C(O)C1O` (centres unmarked) [Compound 19, sugeroside] was > 200 µM.
As to `COc1cc(OC2OC(CO)C(O)C(O)C2O)cc(O)c1C(C)=O` [Compound 20, 2,4-dihydroxy-6-methoxyacetophenone 4-O-β-D-glucopyranoside], the values for the IC50 (on aldose reductase (AR) (setting [3]); in assay [1] (setting [2])) were > 200 µM and 1049 ± 0.11 µM, respectively. The “inhibition of AGEs formation (in words)” value in assay [1] (BSA/fructose/glucose) is on record as “only slight inhibition”.
For `O=C(O)CC1(CC(=O)O)CCCC1` [TMG, 3,3′-Tetramethylene glutaric acid, reference compound], at aldose reductase (AR) (rat lens AR, DL-glyceraldehyde substrate, extract and fractions, mean ± SD, triplicate), the “IC50 AR” value was 1.22 ± 0.03^∗ μg/ml. The IC50 at aldose reductase (AR) (setting [3]) is 6.58 ± 0.19 µM.
For the molecule `O=C(O)/C=C/c1ccc(O)c(O)c1` [caffeic acid], the “inhibitory activity on AR (in words)” value in the assay with AR is on record as “no inhibitory activity”.
